According to patent US20020094992A1, “Intermittent administration of a growth hormone secretagogue” (priority 2000, published 2002):

What was measured:
[1] = Solubility and osmotic pressure of the active compound; type: physicochemical
[2] = tested on: male and female subjects between the ages of 65 and 84 years, baseline IGF-1 <150 ng/ml; test: Clinical study, extension study (CR, CR+IR, daily or every third day): IGF-I, GH peaks, body composition; type: in vivo, human
Method: (§1) This clinical study was performed in male and female subjects between the ages of 65 and 84 years inclusive, and whose baseline IGF-1 levels were <150 ng/ml.
(§2) The study was a double blind, parallel group, placebo-controlled study.
In addition, an extension study was conducted to evaluate the relationship between peak GH concentrations or IGF-I versus surrogate responses such as lipid concentrations and body composition. A controlled release (CR) formulation was also evaluated, either alone or combined with an immediate release (IR) formulation (24-30 patients per group). [16mg (10 CR, 6 IR) h.s.( h.s. means at bedtime); 16 mg (10 CR, 6 IR) h.s. every third day; 16 mg CR h.s.; and placebo.] The formulations are set forth below.
In the extension study, 2-amino-N-[2-(3a-(R)-benzyl-2-methyl-3-oxo-2,3,3a,4,6,7-hexahydro-pyrazolo[4,3-c]pyridin-5-yl)-1-(R)-benzyloxymethyl-2-oxo-ethyl]-isobutyramide L-tartrate was supplied as 10 mg or 3 mg controlled release tablets and 3 mg immediate release tablets, with matching placebo tablets. Study active compound was supplied in blisterpaks, with five tablets to be taken at time of each dosing. Subjects were instructed to take the tablets with one glass of water at bedtime.
(§3) Return visits were scheduled at 1, 2, and 4 weeks after baseline. A blood sample for 2-amino-N-[2-(3a-(R)-benzyl-2-methyl-3-oxo-2,3,3a,4,6,7-hexahydro-pyrazolo[4,3-c]pyridin-5-yl)-1-(R)-benzyloxymethyl-2-oxo-ethyl]-isobutyramide L-tartrate and IGF-1 levels was obtained at each visit. The baseline and all subsequent follow-up visits were performed at the same time of day (between approximately 8-11 am).
In addition to this schedule, subjects at selected sites in the extension study were studied during two overnight admissions on the first night of dosing and again on day 28 of dosing. Growth hormone secretion and pharmacokinetic sampling was carried out.
(§4) A follow-up evaluation was made at 1, 2, and 4 weeks. Vital signs were obtained and the skin of the face, trunk and upper extremities was inspected. A blood sample was obtained for measurement of GH and IGF-1, and for measurement of plasma concentrations of 2-amino-N-[2-(3a-(R)-benzyl-2-methyl-3-oxo-2,3,3a,4,6,7-hexahydro-pyrazolo[4,3-c]pyridin-5-yl)-1-(R)-benzyloxymethyl-2-oxo-ethyl]-isobutyramide L-tartrate.
In addition, subjects at selected study centers were admitted to an overnight unit on day 28 of dosing. Growth hormone secretion profile, pharmacokinetics, and vital sign determination were carried out.
(§5) The primary efficacy endpoint was the percentage change from baseline in IGF-1. Secondary outcomes included insulin-like growth factor binding protein 3 (IGIFBP-3), cholesterol subfractions, and percent changes in total adipose and total lean tissue. Changes in each of the secondary efficacy measures over time were examined systematically either graphically or in tabular form and summarized using appropriate descriptive statistics as is well known in the art.

[3] = tested on: male and female subjects between the ages of 65 and 84 years, baseline IGF-1 <150 ng/ml; test: Clinical study, first leg (immediate release dosage forms): IGF-1, IGFBP-3, body composition; type: in vivo, human
Method: as §1, §2
In the first leg of the study, the safety and efficacy of 2-amino-N-[2-(3a-(R)-benzyl-2-methyl-3-oxo-2,3,3a,4,6,7-hexahydro-pyrazolo[4,3-c]pyridin-5-yl)-1-(R)-benzyloxymethyl-2-oxo-ethyl]-isobutyramide L-tartrate was studied in 4 groups of approximately 24 subjects at doses of 0 mg (placebo), 1 mg tid, 3 mg tid and 3 mg am and 6 mg pm. (All dosage forms in this part of the study were immediate release dosage forms.)
as §3, §4, §5

[4] = two groups receiving IR formulation

For `CN1N=C2CCN(C(=O)[C@@H](COCc3ccccc3)NC(=O)C(C)(C)N)C[C@@]2(Cc2ccccc2)C1=O.O=C(O)C(O)C(O)C(=O)O` [2-amino-N-[2-(3a-(R)-benzyl-2-methyl-3-oxo-2,3,3a,4,6,7-hexahydro-pyrazolo[4,3-c]pyridin-5-yl)-1-(R)-benzyloxymethyl-2-oxo-ethyl]-isobutyramide L-tartrate], the osmotic pressure [1] was “about 4 atmospheres”, the “pH dependence of solubility” value ([1]; this GHSEC is a base) was “generally higher at acidic pH” and the solubility ([1]; water) was > 150 mg/mL. For the same molecule, the “attenuation of GH peaks” value ([2]; Q 3 day group compared with daily group) was “less attenuation”, the “average GH peaks” value ([2]; group receiving CR alone, after 4 weeks) was < 2 ng/mL and the “average GH peaks” value ([2]; group receiving CR alone, at baseline (first night of dosing)) was “less than 4 ng/ml”. The “average GH peaks” value ([2]; groups receiving 6 mg IR (with 10 mg CR), at baseline) was ≥ 15 ng/mL, the “average GH peaks” value ([2]; groups receiving 6 mg IR (with 10 mg CR), by 4 weeks) was 4 to 6 ng/mL and the “GH peak height, Q 3 day group greater than QD group” value ([2]; on average) was 1.52 ng/mL. For the same molecule, the “average rise of IGF-I” value ([2]; remaining group, apparently 16 mg (10 CR, 6 IR) h.s. every third day) was “approximately 10%”, the IGF-I ([2]; the 2 groups dosed daily (16 mg CR h.s., 16 mg (10 CR, 6 IR) h.s.)) was “increases” and the adipose tissue [2, 4] was “corresponding reductions”. For the same molecule, the “increases in lean tissue” value [2, 4] was 0.5-0.6%, the IGF-1 dose relation ([3]; 0 mg, 1 mg tid, 3 mg tid, 3 mg am and 6 mg pm) was “dose related increase” and the “increase in IGF-1” value ([3]; both groups administered 9 mg daily (3 mg tid; 3 mg am and 6 mg pm), immediate release) was “approximately 35%”. For the same molecule, the IGFBP3 ([3]; first leg) was “increased” and the “changes in body composition” value ([3]; first leg, small changes) was “decreased adipose tissue and increased apparent whole body lean mass”.
